Entries after “also recorded” stand apart in the source; their conditions may differ. Like-named read-outs stand apart in the source and are kept apart here.
Legend:
NF-κB [1] = assay: cell-based NF-κB FRET assay; conditions: compound + LPS; two point normalized, compound 1 as 200%, LPS (10 ng/mL) as 100%
Source text: Site A was assigned the 4-substituent of thiazole ring, site B was the thiazole ring itself, site C was the central amide bond in the structure, site D was the benzene ring bearing 1,4-carboxyl and sulfamoyl group, site E was the sulfonamide functional group and site F was the amide substituent on the sulfamoyl group.

NF-κB [2] = assay: Measurement of NF-κB activation using THP1-Blue NF-κB cells (SEAP); type: cell-based; conditions: for activity at 5 µM: 20 h, two point normalized, compound 1 as 200%; for NF-κB activity (SAR discussion, in words): evaluated in both the presence and absence of LPS
THP-1 cells = assay: Cell viability assay (MTT); type: cell-based; conditions: compound 5 μM alone, 18 h, normalized to DMSO as 100%
Method: THP-1 cells were plated in 96-well plates (10^5 cells/well) in 100 μL RPMI supplemented with 10% FBS, 100 U/mL penicillin and 100 μg/ml streptomycin. Compounds were dissolved in DMSO at 1 mM stock solution and were further diluted to 10 μM in the assay medium. 100 μL of this solution was added to the cells to obtain a final compound concentration of 5 μM ([…]). After 18 h incubation, a solution of MTT in assay media (0.5 mg/mL) was added to each well and further incubated for 4 to 6 h, followed by addition of cell lysis buffer (15% w/v SDS and 0.12% v/v 12N HCl aqueous solution), incubated overnight, and then absorbance measured at 570 nm using 650 nm as reference using Tecan Infinite M200 plate reader.

[3] = compound 5 μM + LPS, LPS (10 ng/mL) as 100%, read-out: NF-κB SEAP Compound + LPS % Activation
[4] = compound 5 μM alone, LPS or DMSO as 100%, read-out: NF-κB SEAP Compound alone % Activation

Row | Structure (SMILES) | NF-κB FRET Compound + LPS % Activation (NF-κB [1]) [%] | activity at 5 µM (NF-κB [2]; [3]) [%] | activity at 5 µM (NF-κB [2]; [4]) [%] | NF-κB activity (SAR discussion, in words) (NF-κB [2]) | MTT Compound alone % Viability (THP-1 cells) [%] | NF-κB activity when tested alone (in words) (NF-κB [2]; compound alone, without LPS)
1 | CCCN1CCN(S(=O)(=O)c2ccc(C(=O)Nc3nc(-c4cc(C)ccc4C)cs3)cc2)CC1 [Compound 58k, N-(4-(2,5-dimethylphenyl)thiazol-2-yl)-4-((4-propylpiperazin-1-yl)sulfonyl)benzamide] | 100.84 | 110 | 101 | inactive | 50.85 | –
2 | Cc1ccc(C)c(-c2csc(N(C)C(=O)c3ccc(S(=O)(=O)N4CCCCC4)cc3)n2)c1 [Compound 34c, N-(4-(2,5-dimethylphenyl)thiazol-2-yl)-N-methyl-4-(piperidin-1-ylsulfonyl)benzamide] | 143.05 | 105 | 101 | inactive | 97.43 | –
3 | Cc1ccc(C)c(-c2nc(NC(=O)c3ccc(S(=O)(=O)N4CCCCC4)cc3)sc2C#CCCCO)c1 [Compound 18u, N-(4-(2,5-dimethylphenyl)-5-(5-hydroxypent-1-yn-1-yl)thiazol-2-yl)-4-(piperidin-1-ylsulfonyl)benzamide] | – | 134 | 100 | – | 104.08 | –
4 | Cc1ccc(C)c(-c2nc(NC(=O)c3ccc(S(=O)(=O)N4CCCCC4)cc3)sc2C)c1 [Compound 18m, N-(4-(2,5-dimethylphenyl)-5-methylthiazol-2-yl)-4-(piperidin-1-ylsulfonyl)benzamide] | 186.92 | 179 | 159 | – | 96.90 | –
5 | Cc1ccc2c(c1)-c1nc(NC(=O)c3ccc(S(=O)(=O)N4CCCCC4)cc3)sc1C2 [Compound 12r, N-(5-methyl-8H-indeno[1,2-d]thiazol-2-yl)-4-(piperidin-1-ylsulfonyl)benzamide] | 129.01 | 95.6 | 102 | weakly active | 82.46 | –
6 | Cc1ccc(C)c(-c2nc(NC(=O)c3ccc(S(=O)(=O)N4CCCCC4)cc3)sc2-c2ccccc2)c1 [Compound 18i, N-(4-(2,5-dimethylphenyl)-5-phenylthiazol-2-yl)-4-(piperidin-1-ylsulfonyl)benzamide] | – | 98.4 | 98.3 | completely inactive | – | –
7 | Cc1cccc(-c2csc(NC(=O)c3ccc(S(=O)(=O)N4CCCCC4)cc3)n2)c1 [Compound 12c, 4-(piperidin-1-ylsulfonyl)-N-(4-(m-tolyl)thiazol-2-yl)benzamide] | 78.98 | 98.6 | 99.5 | inactive | 96.06 | –
8 | Cc1ccc2c(c1)-c1nc(NC(=O)c3ccc(S(=O)(=O)N4CCCCC4)cc3)sc1CC2 [Compound 12s, N-(8-methyl-4,5-dihydronaphtho[1,2-d]thiazol-2-yl)-4-(piperidin-1-ylsulfonyl)benzamide] | 159.62 | 141 | 128 | weakly active | 102.16 | –
9 | CCC#Cc1sc(NC(=O)c2ccc(S(=O)(=O)N3CCCCC3)cc2)nc1-c1cc(C)ccc1C [Compound 18p, N-(5-(but-1-yn-1-yl)-4-(2,5-dimethylphenyl)thiazol-2-yl)-4-(piperidin-1-ylsulfonyl)benzamide] | 210.21 | 192 | 291 | – | 120.17 | very potent
10 | Cc1ccc(C)c(Cc2csc(NC(=O)c3ccc(S(=O)(=O)N4CCCCC4)cc3)n2)c1 [Compound 12f, N-(4-(2,5-dimethylbenzyl)thiazol-2-yl)-4-(piperidin-1-ylsulfonyl)benzamide] | – | 108 | 102 | inactive | 97.02 | –
11 | Cc1ccc(C)c(-c2cnc(NC(=O)c3ccc(S(=O)(=O)N4CCCCC4)cc3)s2)c1 [Compound 18e, N-(5-(2,5-dimethylphenyl)thiazol-2-yl)-4-(piperidin-1-ylsulfonyl)benzamide] | – | 95.1 | 98.3 | none of these molecules that replaced the thiazole functionality were active | – | –
12 | CCCc1csc(NC(=O)c2ccc(S(=O)(=O)N3CCCCC3)cc2)n1 [Compound 12i, 4-(piperidin-1-ylsulfonyl)-N-(4-propylthiazol-2-yl)benzamide] | 112.46 | 94.2 | 99.2 | None of these molecules had any NF-κB activity | 122.66 | –
13 | Cc1ccc(Br)c(-c2csc(NC(=O)c3ccc(S(=O)(=O)N4CCCCC4)cc3)n2)c1 [Compound 12d, N-(4-(2-bromo-5-methylphenyl)thiazol-2-yl)-4-(piperidin-1-ylsulfonyl)benzamide] | 197.32 | 223 | 254 | active; also recorded: most potent | – | –
14 | CCc1ccc(C)c(-c2csc(NC(=O)c3ccc(S(=O)(=O)N4CCCCC4)cc3)n2)c1 [Compound 12u, N-(4-(5-ethyl-2-methylphenyl)thiazol-2-yl)-4-(piperidin-1-ylsulfonyl)benzamide] | – | 200 | 216 | resulted in activity | – | –
15 | Cc1ccc(C)c(-c2csc(NC(=O)c3ccc(S(=O)(=O)N4CCCCC4)s3)n2)c1 [Compound 46c, N-(4-(2,5-dimethylphenyl)thiazol-2-yl)-5-(piperidin-1-ylsulfonyl)thiophene-2-carboxamide] | – | 97.2 | 106 | none of these modifications at site D or E were tolerated | – | –
16 | O=C(Nc1nc(-c2cccc3ccccc23)cs1)c1ccc(S(=O)(=O)N2CCCCC2)cc1 [Compound 12q, N-(4-(naphthalen-1-yl)thiazol-2-yl)-4-(piperidin-1-ylsulfonyl)benzamide] | – | 200 | 198 | equally potent | 92.71 | –
17 | CCOc1sc(NC(=O)c2ccc(S(=O)(=O)N3CCCCC3)cc2)nc1-c1cc(C)ccc1C [Compound 18l, N-(4-(2,5-dimethylphenyl)-5-ethoxythiazol-2-yl)-4-(piperidin-1-ylsulfonyl)benzamide] | – | 111 | 104 | partial activity | – | –
18 | Cc1cccc(C)c1-c1csc(NC(=O)c2ccc(S(=O)(=O)N3CCCCC3)cc2)n1 [Compound 12p, N-(4-(2,6-dimethylphenyl)thiazol-2-yl)-4-(piperidin-1-ylsulfonyl)benzamide] | – | 209 | 185 | retained activity | 99.64 | –
19 | C#CCN(C(=O)c1ccc(S(=O)(=O)N2CCCCC2)cc1)c1nc(-c2cc(C)ccc2C)cs1 [Compound 34d, N-(4-(2,5-dimethylphenyl)thiazol-2-yl)-4-(piperidin-1-ylsulfonyl)-N-(prop-2-yn-1-yl)benzamide] | – | 97.7 | 101 | inactive | – | –
20 | Cc1ccc(C)c(-c2nnc(NC(=O)c3ccc(S(=O)(=O)N4CCCCC4)cc3)s2)c1 [Compound 18f, N-(5-(2,5-dimethylphenyl)-1,3,4-thiadiazol-2-yl)-4-(piperidin-1-ylsulfonyl)benzamide] | – | 148 | 99.7 | none of these molecules that replaced the thiazole functionality were active | 89.80 | –
21 | CC(C)(C)c1csc(NC(=O)c2ccc(S(=O)(=O)N3CCCCC3)cc2)n1 [Compound 12k, N-(4-(tert-butyl)thiazol-2-yl)-4-(piperidin-1-ylsulfonyl)benzamide] | – | 94.1 | 99.5 | None of these molecules had any NF-κB activity | 127.74 | –
22 | CCCC#Cc1sc(NC(=O)c2ccc(S(=O)(=O)N3CCC(CCC)CC3)cc2)nc1-c1cc(C)ccc1Br [Compound 65, N-(4-(2-bromo-5-methylphenyl)-5-(pent-1-yn-1-yl)thiazol-2-yl)-4-((4-propylpiperidin-1-yl)sulfonyl)benzamide] | – | – | – | very potent and showed better potency than compound 1 | – | –
23 | CCc1sc(NC(=O)c2ccc(S(=O)(=O)N3CCCCC3)cc2)nc1-c1cc(C)ccc1C [Compound 18r, N-(4-(2,5-dimethylphenyl)-5-ethylthiazol-2-yl)-4-(piperidin-1-ylsulfonyl)benzamide] | – | 179 | 179 | retained activity | 103.66 | –

From patent US12091393B2, “Small molecule vaccine adjuvant for enhancing or prolonging immune response” (The Regents of the University of California, priority 2018, dated 2024)
